Here are results for 72 compounds from patent publication US10774051B2, “6-membered heterocyclic derivatives and pharmaceutical composition comprising the same” (Shionogi & Co., Ltd., priority 2015, dated 2020).

For one test, the target named is human P2X7 receptor (Homo sapiens, UniProt Q99572, R270H/Y155H). As to the kind of experiment: Evaluation of human P2X7 receptor inhibitory activity (Yo-Pro uptake, BzATP stimulation, FLIPR TETRA). The class given is cell-based. To be noted: 1321N1 cells stably expressing human P2X7 receptor; BzATP stimulation, Yo-Pro uptake; read-out: IC50 (antagonistic activity for the human P2X7 receptor). The gist of the method:
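Yo-Pro dye uptake triggered by BzATP was monitored by FLIPR in human P2X7-transfected 1321N1 cells (SNP variant) in HEPES-buffered HBSS, pH 7.4-7.5. Compound was dispensed 8 min post-stimulation, then signal read for 20 min; IC50 derived logistically from inhibition of the fluorescence range.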
By IC50 is commonly meant the concentration that gives 50% inhibition. `Cc1c(Cl)cccc1Nc1nc(=O)c(O)cn1Cc1ccccc1` [Compound I-0203]: the IC50 turned out to be 18 nM.
On to `O=c1nc(Nc2cccc3c(=O)[nH]ccc23)n(Cc2cc(F)cc(F)c2)cc1F` [Compound I-0703], for which the 50% inhibitory concentration (IC50) is 16 nM.
In the case of `COc1cn(Cc2ccc(F)c(Cl)c2)c(Nc2c(C)cc3oc(C)cc3c2C)nc1=O` [Compound I-0833], the 50% inhibitory concentration (IC50) was found to be 39 nM.
Same read-out and setting: with `Cc1c(Nc2nc(=O)cnn2Cc2cc(F)c(F)c(F)c2)ccc2[nH]ccc12` [Compound I-1263] the figure was 3 nM.
On the same count and under the same terms, with `COc1cn(Cc2ccc(F)c(Cl)c2)c(Nc2cc3c(cc2C)OCCC3)nc1=O` [Compound I-0914] the figure was 22 nM; with `COc1cn(Cc2cc(F)c(F)c(F)c2)c(Nc2cc3sc(C)nc3cc2C)nc1=NC#N` [Compound I-1285], 27 nM.

The test is the same for the next values; noted with them: 1321N1 cells stably expressing human P2X7 receptor; BzATP stimulation, Yo-Pro uptake; read-out: IC50 (antagonistic activity for the human P2X7 receptor), class symbol.
In the case of `COc1cn(Cc2cc(F)cc(F)c2)c(Nc2cc3sc(C)nc3cc2C)nc1=O` [Compound I-0553], the IC50 is 10 to 100 nM.
Take `COc1cn(Cc2ccccc2)c(Nc2cc3sc(C)nc3cc2C)nc1=O` [Compound I-0431]: the half-maximal inhibitory concentration (IC50) lay in the range of 10 to 100 nM.
As to `COCCNC(=O)c1cn(Cc2ccccc2)c(Nc2cccc(Cl)c2C)nc1=O` [Compound I-0076], the IC50 lay in the range of 100 to 500 nM.
`COc1cn(Cc2cc(F)cc(F)c2)c(Nc2cc(C)c(Cl)cc2C)nc1=O` [Compound I-0378]: the concentration for half-maximal inhibition (IC50) was < 10 nM.
For `COc1cn(Cc2ccccc2)c(Nc2cc(S(C)(=O)=O)ccc2C)nc1=O` [Compound I-0513], the IC50 was in the range of 100 to 500 nM.
In the case of `COc1cc(C)c(Nc2nc(=O)c(F)cn2Cc2ccccc2)cc1C` [Compound I-0318], the half-maximal inhibitory concentration (IC50) was < 10 nM.
As for `CCc1c(Nc2nc(=O)c(OC)cn2Cc2ccccc2)cc(OC)cc1OC` [Compound I-0361], the IC50 was < 10 nM.
The same measure, in the same setting: the same measure for `COc1cn(Cc2ccccc2)c(Nc2cccc3c2ccn3C)nc1=O` [Compound I-0117]: 10 to 100 nM.
As to `COCc1cccc(Nc2nc(=O)c(OC)cn2Cc2ccccc2)c1C` [Compound I-0352], the IC50 lay in the range of 100 to 500 nM.
With `COc1cn(Cc2ccccc2)c(Nc2cccc(C)c2C)nc1=O` [Compound I-0095], the IC50 lay within 10 to 100 nM.
Consider `CCOc1cc(C)c(Nc2nc(=O)c(OC)cn2Cc2cc(F)cc(F)c2)cc1C` [Compound I-0383], for which the IC50 was < 10 nM.
With `COc1cn(Cc2ccccc2)c(Nc2cc(Br)ccc2Cl)nc1=O` [Compound I-0144], the IC50 lay in the range of 100 to 500 nM.
In the case of `COc1cn(Cc2cc(F)cc(Cl)c2)c(Nc2cc(C)c(C)cc2C)nc1=O` [Compound I-0381], the IC50 is < 10 nM.
`CCc1ccccc1Nc1nc(=O)c(OC)cn1Cc1ccc(F)cc1` [Compound I-0200]: the IC50 lay within 10 to 100 nM.
Turning to `COc1cc(C)c(Nc2nc(=O)c(OC)cn2Cc2ccc(F)cc2)cc1C` [Compound I-0282], the IC50 was < 10 nM.
On the same count and under the same terms, with `COc1cn(Cc2ccc(F)c(Cl)c2)c(Nc2cc(CN3CCCC3)ccc2C)nc1=O` [Compound I-0524] the figure was 100 to 500 nM; with `COc1cn(Cc2ccccc2)c(Nc2cc(C(C)C)ccc2C)nc1=O` [Compound I-0143], 10 to 100 nM; with `COc1cn(Cc2ccccc2)c(Nc2cc(C(N)=O)ccc2Cl)nc1=O` [Compound I-0181], 500 to 1000 nM.
Still for that read-out and setting: the same measure for `COc1cn(Cc2ccc(F)c(F)c2)c(Nc2cccc(C)c2Cl)nc1=O` [Compound I-0482]: < 10 nM.
For the compound `COc1cn(Cc2cc(F)cc(Cl)c2)c(Nc2cccc(C)c2C)nc1=O` [Compound I-0403], the half-maximal inhibitory concentration (IC50) lay within 10 to 100 nM.
The same measure, in the same setting: with `COc1cn(Cc2ccccc2)c(Nc2ccc(Cl)cc2Cl)nc1=O` [Compound I-0071] the figure was 100 to 500 nM.
`Cc1c(Cl)cccc1Nc1nc(=O)c(OC(C)C)cn1Cc1ccccc1` [Compound I-0142]: the IC50 fell in the range of 10 to 100 nM.
Regarding `COc1cn(Cc2ccccc2)c(Nc2cccc(Oc3ccccc3)c2C)nc1=O` [Compound I-0138], the IC50 was 500 to 1000 nM.
The same measure, in the same setting: with `COc1cn(Cc2ccc(F)c(Cl)c2)c(Nc2ccc(OC(F)(F)F)cc2C)nc1=O` [Compound I-0241] the figure was 10 to 100 nM; with `CCc1cc2c(cc1Nc1nc(=O)c(OC)cn1Cc1cccc(Cl)c1)CCC2` [Compound I-0164], < 10 nM.
As to `COc1cn(Cc2ccccc2)c(Nc2cc3c(cc2C)OCCO3)nc1=O` [Compound I-0287], the IC50 was 10 to 100 nM.
Still for that read-out and setting: with `COc1cc(C)cc(Nc2nc(=O)c(OC)cn2Cc2ccccc2)c1C` [Compound I-0281] the figure was < 10 nM; with `COc1cc(C)cc(Nc2nc(=O)c(OC)cn2Cc2ccc(F)c(Cl)c2)c1C` [Compound I-0449], < 10 nM; with `CCc1ccccc1Nc1nc(=O)c(OC)cn1Cc1cccc(Cl)c1` [Compound I-0322], 10 to 100 nM.
On the same count and under the same terms, the same measure for `Cc1cccc(Nc2nc(=O)c(Br)cn2Cc2ccccc2)c1C` [Compound I-0108]: 10 to 100 nM.
As to `CCc1ccc(CC)c(Nc2nc(=O)c(OC)cn2Cc2ccccc2)c1` [Compound I-0211], the IC50 is < 10 nM.

The same test, now with this note: antagonistic activity for the human P2X7 receptor; read-out: IC50.
For the compound `COc1cn(Cc2cc(F)cc(F)c2)c(Nc2cc(OC(F)F)ccc2C)nc1=O` [Compound I-0874], the IC50 lay in the range of 10 to 100 nM.
Consider `COc1ccc(Nc2nc(=O)c(OC)cn2Cc2ccc(F)cc2)c(C)c1` [Compound I-0739], for which the IC50 was in the range of 10 to 100 nM.
`COc1cn(Cc2ccc(F)c(F)c2)c(Nc2ccccc2C)nc1=O` [Compound I-0685]: the IC50 fell in the range of 10 to 100 nM.
In the case of `COc1cc(Nc2nc(=O)c(OC)cn2Cc2cc(F)c(F)c(F)c2)c(C)cc1F` [Compound I-0863], the IC50 was < 10 nM.
For `CCc1ccc(Cl)cc1Nc1nc(=O)c(F)cn1Cc1cc(F)c(F)c(F)c1` [Compound I-1190], the IC50 is < 10 nM.
On to `CCOC(=O)c1cn(Cc2ccc(F)c(F)c2)c(Nc2cc(C)c(OC)cc2C)nc1=O` [Compound I-1109], for which the concentration for half-maximal inhibition (IC50) is < 10 nM.
Still for that read-out and setting: the same measure for `COc1cn(Cc2cc(F)cc(F)c2)c(Nc2cc(-c3ccccc3)ccc2C)nc1=O` [Compound I-0829]: 10 to 100 nM.
As to `CCc1cc(OC)c(OC)cc1Nc1nc(=O)c(F)cn1Cc1cc(F)c(F)c(F)c1` [Compound I-1220], the IC50 is < 10 nM.
For the compound `CCOc1ccc(C)c(Nc2nc(=O)c(F)cn2Cc2cc(F)cc(F)c2)c1` [Compound I-1002], the IC50 was 10 to 100 nM.
Consider `CCc1cc(OC)ccc1Nc1nc(=O)c(F)cn1Cc1cc(F)cc(F)c1` [Compound I-1214], for which the IC50 was < 10 nM.
Consider `COc1ccc(Cl)c(Nc2cc(=O)c(OC)cn2Cc2ccc(F)c(Cl)c2)c1` [Compound I-0955], for which the IC50 fell in the range of 10 to 100 nM.
For `CCOc1cc(Nc2nc(=O)c(F)cn2Cc2cc(F)c(F)c(F)c2)c(C)cc1F` [Compound I-1030], the IC50 was < 10 nM.
Still for that read-out and setting: the same measure for `Cc1cc2[nH]ncc2cc1Nc1nc(=O)c(F)cn1Cc1ccc(F)c(F)c1` [Compound I-1095]: 10 to 100 nM.
`COc1cc(Nc2nc(=O)c(OC)cn2Cc2ccc(F)c(Cl)c2)c(C)cc1C` [Compound I-0586]: the IC50 is < 10 nM.
Regarding `CCOc1ccc(Nc2nc(=O)c(F)cn2Cc2ccc(F)c(Cl)c2)c(C)c1` [Compound I-1035], the IC50 was 10 to 100 nM.
Still for that read-out and setting: with `COc1cn(Cc2ccccc2)c(Nc2cc(C)c(OC(F)F)cc2C)cc1=O` [Compound I-0951] the figure was 100 to 500 nM.
Consider `COc1cnc(Nc2cccc(Cl)c2C)n(Cc2ccc(F)c(F)c2)c1=O` [Compound I-0973], for which the IC50 lay within 100 to 500 nM.
As for `COc1cn(Cc2cc(F)cc(Cl)c2)c(Nc2cc(OC(F)(F)F)ccc2C)nc1=O` [Compound I-0694], the IC50 was 100 to 500 nM.
As for `CCc1cc2c(cc1Nc1nc(=O)c(OC)cn1Cc1cc(F)cc(F)c1)OCCO2` [Compound I-0797], the IC50 lay within 10 to 100 nM.
Consider `COc1cn(Cc2ccccc2)c(Nc2cc(-c3cscn3)ccc2C)nc1=O` [Compound I-0750], for which the half-maximal inhibitory concentration (IC50) lay within 10 to 100 nM.
For the compound `COc1ccc(Nc2nc(=O)cnn2Cc2ccc(Cl)c(F)c2)c(C)c1` [Compound I-1268], the IC50 lay in the range of 10 to 100 nM.
On to `COc1cn(Cc2ccccc2)c(Nc2cc(C)c(Cl)cc2F)nc1=O` [Compound I-0801], for which the IC50 was in the range of 100 to 500 nM.
Regarding `Cc1cn(Cc2cc(F)c(F)c(F)c2)c(Nc2ccc3[nH]ccc3c2C)nc1=O` [Compound I-1165], the half-maximal inhibitory concentration (IC50) was < 10 nM.
`COc1ccc(Nc2nc(=O)c(F)cn2Cc2cc(F)c(F)c(F)c2)c(Cl)c1` [Compound I-1186]: the IC50 is < 10 nM.
The same measure, in the same setting: the same measure for `Cc1ccc(S(C)(=O)=O)cc1Nc1nc(=O)ccn1Cc1cc(F)c(F)c(F)c1` [Compound I-1134]: 10 to 100 nM.
`CCOc1cn(Cc2ccc(F)c(Cl)c2)c(Nc2cc(OC)c(OC)cc2CC)nc1=O` [Compound I-0909]: the IC50 was 10 to 100 nM.
Turning to `COc1cc(C)c(Nc2nc(=O)c(C#N)cn2Cc2cc(F)c(F)c(F)c2)cc1C` [Compound I-1083], the IC50 is < 10 nM.
For the compound `Cc1ccc(OCCO)cc1Nc1nc(=O)c(C)cn1Cc1cc(F)c(F)c(F)c1` [Compound I-1145], the IC50 was in the range of 10 to 100 nM.
Regarding `Cc1nc2ccc(Nc3nc(=O)c(F)cn3Cc3cc(F)c(F)c(F)c3)c(C)c2s1` [Compound I-1199], the IC50 was < 10 nM.
Consider `COc1cn(Cc2cc(F)cc(F)c2)c(Nc2cccc3c2ccc(=O)n3C)nc1=O` [Compound I-0882], for which the half-inhibitory concentration (IC50) was 500 to 1000 nM.
`COc1cn(Cc2ccc(Cl)s2)c(Nc2cc(C)c(C)cc2C)nc1=O` [Compound I-0808]: the IC50 was < 10 nM.
The same measure, in the same setting: with `COc1cc(C)c(Nc2nc(=O)c(C(N)=O)cn2Cc2cc(F)c(F)c(F)c2)cc1C` [Compound I-1081] the figure was 10 to 100 nM; with `COc1cc(C)c(Nc2nc(=NC#N)c(F)cn2Cc2cc(F)c(F)c(F)c2)cc1OC` [Compound I-1288], 10 to 100 nM; with `COc1cn(Cc2ccc(F)c(F)c2)c(Nc2cc(OC(F)F)ccc2C)nc1=O` [Compound I-0873], 10 to 100 nM.
Same read-out and setting: the same measure for `COc1cn(Cc2cc(F)cc(F)c2)c(Nc2cc(-c3cnccn3)ccc2C)nc1=O` [Compound I-0684]: 10 to 100 nM.
